The source made the active and inactive calls. The rule behind the calls is not given here.
Tests used:
[1] = target: T1, Protein cereblon/Tyrosine-protein kinase BTK (Homo sapiens, UniProt Q06187+Q96SW2); experiment: PROTAC activity at CRBN/BTK in human Ramos cells assessed as degradation of BTK protein incubated for 4 hrs by HTRF assay; assay type: cell-based
Target sequence in this assay (Q06187 whole entry): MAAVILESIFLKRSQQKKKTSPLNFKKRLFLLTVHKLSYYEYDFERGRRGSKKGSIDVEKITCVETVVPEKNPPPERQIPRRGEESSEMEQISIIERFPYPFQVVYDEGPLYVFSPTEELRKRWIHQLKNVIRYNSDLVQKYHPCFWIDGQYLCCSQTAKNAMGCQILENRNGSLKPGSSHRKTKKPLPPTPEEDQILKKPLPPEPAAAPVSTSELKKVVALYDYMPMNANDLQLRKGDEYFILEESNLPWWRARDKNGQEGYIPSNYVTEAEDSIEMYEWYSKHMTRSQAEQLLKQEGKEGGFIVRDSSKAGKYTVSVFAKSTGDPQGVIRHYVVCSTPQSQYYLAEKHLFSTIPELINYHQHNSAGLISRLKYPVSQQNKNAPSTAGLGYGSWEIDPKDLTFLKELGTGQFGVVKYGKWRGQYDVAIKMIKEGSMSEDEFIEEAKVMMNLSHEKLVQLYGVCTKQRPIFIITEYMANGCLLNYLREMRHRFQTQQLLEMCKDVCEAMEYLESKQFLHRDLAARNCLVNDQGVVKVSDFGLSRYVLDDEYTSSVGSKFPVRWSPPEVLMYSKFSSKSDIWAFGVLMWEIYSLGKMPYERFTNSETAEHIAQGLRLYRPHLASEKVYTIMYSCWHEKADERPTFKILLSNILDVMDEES
Target sequence in this assay (Q96SW2 whole entry): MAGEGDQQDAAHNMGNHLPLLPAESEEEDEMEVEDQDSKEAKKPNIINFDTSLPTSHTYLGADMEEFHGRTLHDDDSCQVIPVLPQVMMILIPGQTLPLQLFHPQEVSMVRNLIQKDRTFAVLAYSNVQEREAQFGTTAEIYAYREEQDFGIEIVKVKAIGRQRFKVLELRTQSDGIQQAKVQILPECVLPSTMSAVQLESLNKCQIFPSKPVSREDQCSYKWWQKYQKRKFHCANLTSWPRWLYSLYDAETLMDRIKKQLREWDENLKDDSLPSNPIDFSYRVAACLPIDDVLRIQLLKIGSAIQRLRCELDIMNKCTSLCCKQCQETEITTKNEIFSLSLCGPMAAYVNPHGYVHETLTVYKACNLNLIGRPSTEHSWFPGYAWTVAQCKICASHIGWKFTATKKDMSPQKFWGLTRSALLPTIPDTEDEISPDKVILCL

[2] = target: T1, Protein cereblon/Tyrosine-protein kinase BTK; experiment: PROTAC activity at CRBN/BTK in human Ramos cells assessed as maximal degradation of BTK protein incubated for 4 hrs by HTRF assay relative to control; assay type: cell-based
Target sequence in this assay (Q06187 2-659 limits assumed): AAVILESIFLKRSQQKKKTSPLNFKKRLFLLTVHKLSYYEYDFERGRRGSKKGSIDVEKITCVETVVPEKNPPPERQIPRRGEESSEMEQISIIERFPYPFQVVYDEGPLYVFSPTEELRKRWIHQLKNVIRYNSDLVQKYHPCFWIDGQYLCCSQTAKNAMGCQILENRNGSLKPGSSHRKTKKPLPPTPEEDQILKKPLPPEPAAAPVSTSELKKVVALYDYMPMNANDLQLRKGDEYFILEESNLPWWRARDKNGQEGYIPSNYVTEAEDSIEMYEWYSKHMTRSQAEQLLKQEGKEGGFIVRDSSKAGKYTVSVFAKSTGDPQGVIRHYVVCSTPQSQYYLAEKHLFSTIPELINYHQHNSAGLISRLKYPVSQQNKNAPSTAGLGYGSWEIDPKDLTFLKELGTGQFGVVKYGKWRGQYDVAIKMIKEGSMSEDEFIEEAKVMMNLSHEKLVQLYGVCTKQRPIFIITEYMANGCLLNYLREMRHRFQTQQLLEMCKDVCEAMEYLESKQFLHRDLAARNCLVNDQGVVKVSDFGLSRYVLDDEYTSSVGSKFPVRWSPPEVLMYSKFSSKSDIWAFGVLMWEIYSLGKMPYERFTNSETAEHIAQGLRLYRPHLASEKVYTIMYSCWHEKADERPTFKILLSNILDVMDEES
Target sequence in this assay (Q96SW2 whole entry partner): as the sequence (Q96SW2 whole entry) above

[3] = target: T1, Protein cereblon/Tyrosine-protein kinase BTK; experiment: PROTAC activity at CRBN/BTK in human TMD8 cells assessed as maximal degradation of BTK protein incubated for 4 hrs by HTRF assay relative to control; assay type: cell-based
Target sequence in this assay (Q06187 2-659 limits assumed): as the sequence (Q06187 2-659 limits assumed) above
Target sequence in this assay (Q96SW2 whole entry partner): as the sequence (Q96SW2 whole entry) above

[4] = target: T1, Protein cereblon/Tyrosine-protein kinase BTK; experiment: PROTAC activity at CRBN/BTK in human TMD8 cells assessed as degradation of BTK protein incubated for 4 hrs by HTRF assay; assay type: cell-based
Target sequence in this assay (Q06187 whole entry): as the sequence (Q06187 whole entry) above
Target sequence in this assay (Q96SW2 whole entry): as the sequence (Q96SW2 whole entry) above

[5] = target: T2, Protein cereblon/Tyrosine-protein kinase BTK (Mus musculus) (UniProt P35991+Q8C7D2); experiment: In vivo protac activity at CRBN/BTK in BALB/c mouse assessed as remaining BTK protein in blood at 3 mg/kg,po administration measured after 6 hrs by flow cytomtery relative to control; assay type: functional, organism-based
T2 sequence (P35991 whole entry, looked up): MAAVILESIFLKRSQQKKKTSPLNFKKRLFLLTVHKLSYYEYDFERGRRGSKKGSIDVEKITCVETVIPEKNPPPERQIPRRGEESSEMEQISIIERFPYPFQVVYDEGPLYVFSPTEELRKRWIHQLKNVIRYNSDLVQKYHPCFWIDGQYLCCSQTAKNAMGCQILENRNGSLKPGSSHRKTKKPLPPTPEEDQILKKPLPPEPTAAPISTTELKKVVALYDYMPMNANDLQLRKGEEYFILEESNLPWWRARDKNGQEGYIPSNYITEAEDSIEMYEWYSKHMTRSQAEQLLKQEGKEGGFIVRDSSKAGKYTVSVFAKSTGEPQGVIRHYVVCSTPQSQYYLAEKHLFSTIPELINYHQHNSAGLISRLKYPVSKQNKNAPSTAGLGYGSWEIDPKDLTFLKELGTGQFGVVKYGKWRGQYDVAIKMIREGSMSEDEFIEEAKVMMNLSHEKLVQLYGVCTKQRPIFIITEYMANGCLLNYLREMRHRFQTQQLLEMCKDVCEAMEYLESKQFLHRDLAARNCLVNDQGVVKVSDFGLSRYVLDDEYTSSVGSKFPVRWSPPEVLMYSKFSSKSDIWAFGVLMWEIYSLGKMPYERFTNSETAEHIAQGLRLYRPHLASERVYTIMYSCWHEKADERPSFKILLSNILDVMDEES
T2 sequence (Q8C7D2 whole entry, looked up): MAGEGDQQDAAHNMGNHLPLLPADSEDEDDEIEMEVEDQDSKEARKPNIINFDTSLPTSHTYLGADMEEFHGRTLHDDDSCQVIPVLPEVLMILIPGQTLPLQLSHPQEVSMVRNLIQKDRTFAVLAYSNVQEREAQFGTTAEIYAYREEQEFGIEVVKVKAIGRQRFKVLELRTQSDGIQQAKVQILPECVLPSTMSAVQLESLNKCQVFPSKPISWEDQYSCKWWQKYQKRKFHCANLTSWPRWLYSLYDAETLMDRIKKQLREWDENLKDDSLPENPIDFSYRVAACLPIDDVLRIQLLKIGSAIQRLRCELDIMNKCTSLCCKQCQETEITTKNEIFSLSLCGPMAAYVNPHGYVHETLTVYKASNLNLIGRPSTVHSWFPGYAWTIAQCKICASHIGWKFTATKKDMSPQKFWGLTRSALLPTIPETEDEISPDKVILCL

[6] = target: T3, Protein cereblon/Zinc finger protein Aiolos (Homo sapiens, UniProt Q96SW2+Q9UKT9); experiment: PROTAC activity at CRBN/IKZF3 in human T cell assessed as degradation of IKZF3 protein incubated for 24 hrs by flow cytometry; assay type: cell-based
Target sequence in this assay (Q96SW2 whole entry): as the sequence (Q96SW2 whole entry) above
Target sequence in this assay (Q9UKT9 whole entry): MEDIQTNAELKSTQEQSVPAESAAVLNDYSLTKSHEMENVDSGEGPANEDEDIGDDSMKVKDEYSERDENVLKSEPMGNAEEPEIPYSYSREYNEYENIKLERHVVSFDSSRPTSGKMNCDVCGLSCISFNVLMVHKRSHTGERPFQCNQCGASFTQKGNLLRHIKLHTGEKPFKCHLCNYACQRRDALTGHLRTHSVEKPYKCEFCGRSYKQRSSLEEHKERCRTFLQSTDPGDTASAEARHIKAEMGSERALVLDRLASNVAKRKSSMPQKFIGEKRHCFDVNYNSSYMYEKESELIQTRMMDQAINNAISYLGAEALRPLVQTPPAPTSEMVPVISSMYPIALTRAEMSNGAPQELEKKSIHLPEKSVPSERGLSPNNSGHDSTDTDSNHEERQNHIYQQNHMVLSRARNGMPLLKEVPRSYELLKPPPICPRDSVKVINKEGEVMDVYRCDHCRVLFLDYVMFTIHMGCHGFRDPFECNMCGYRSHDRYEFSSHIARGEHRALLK

[7] = target: T3, Protein cereblon/Zinc finger protein Aiolos; experiment: PROTAC activity at CRBN/IKZF3 in human T cell assessed as maximal degradation of IKZF3 protein incubated for 24 hrs by flow cytometry relative to control; assay type: cell-based
Target sequence in this assay (Q96SW2 whole entry, looked up): as the sequence (Q96SW2 whole entry) above
Target sequence in this assay (Q9UKT9 whole entry, looked up): as the sequence (Q9UKT9 whole entry) above

[8] = target: T2, Protein cereblon/Tyrosine-protein kinase BTK (Mus musculus); experiment: In vivo protac activity at CRBN/BTK in BALB/c mouse assessed as remaining BTK protein in splenocyte at 3 mg/kg,po administration measured after 6 hrs by HTRF assay relative to control; assay type: functional, organism-based
TMD8 [9] = experiment: Antitumor activity against human TMD8 cells expressing BTK C481S mutant xenografted in CB17-SCID mouse assessed as tumor growth inhibition at 30 mg/kg,po administration for 25 days; assay type: functional; details: time 25.0 day
TMD8 [10] = experiment: Antitumor activity against human TMD8 cells expressing wild type BTK xenografted in CB17-SCID mouse assessed as tumor growth inhibition at 30 mg/kg,po administration for 25 days; assay type: functional; details: TMD8, 600 h, time 25 day, read-out: TGI

Row | SMILES | DC50 [1] | Emax [2] | Emax [3] | DC50 [4] | Activity [5] | DC50 [6] | Emax [7] | Activity [8] | Activity (TMD8 [9]) | inhibition in vivo at 30 mg/kg (TMD8 [10])
1 | Cc1[nH]c2c(C(N)=O)ccc(N3CCC[C@H](NC(=O)CCCCCCc4cccc5c4CN(C4CCC(=O)NC4=O)C5=O)C3)c2c1C (some centres undefined) | > 10000 nM | < 20% |  |  |  |  |  |  |  | 
2 | CN1CCN([C@@H]2CCCN(c3cnc(C(N)=O)c(Nc4ccc(C5CCN(C[C@H]6CCN(c7ccc8c(c7)CN(C7CCC(=O)NC7=O)C8=O)C6)CC5)cc4)n3)C2)C1=O (some centres undefined) |  |  | 96% | 0.25 nM | 49% |  |  |  |  | 
3 | CN1CCN([C@@H]2CCCN(c3cnc(C(N)=O)c(Nc4ccc(C5CCN(CC6CN(c7ccc8c(c7)C(=O)N(C7CCC(=O)NC7=O)C8=O)C6)CC5)cc4)n3)C2)C1=O (some centres undefined) | 0.8 nM | 97% |  |  |  |  |  |  |  | 
4 | C[C@H]1CN(C(=O)CCOCCCc2cccc3c2CN(C2CCC(=O)NC2=O)C3=O)CCN1c1ccc(Nc2cc(-c3ccnc(N4CCn5c(cc6c5CC(C)(C)C6)C4=O)c3CO)cn(C)c2=O)nc1 (some centres undefined) | 7.2 nM | 88% |  |  |  |  |  |  |  | 
5 | CN1CCN([C@@H]2CCCN(c3cnc(C(N)=O)c(Nc4ccc(C5CCN(CC6CCN(c7ccc8c(c7)C(=O)N(C7CCC(=O)NC7=O)C8=O)CC6)CC5)cc4)n3)C2)C1=O (some centres undefined) | 0.75 nM | 94% |  |  |  | 28 nM | 74% |  |  | 
6 | CN1CCN([C@@H]2CCCN(c3cnc(C(N)=O)c(Nc4ccc(C5CCN(C6CN(c7ccc8c(c7)C(=O)N(C7CCC(=O)NC7=O)C8=O)C6)CC5)cc4)n3)C2)C1=O (some centres undefined) | 1.4 nM | 91% | 96% | 1.2 nM | 35% | 32 nM | 74% |  |  | 
7 | Nc1ncnc2c1c(-c1ccc(Oc3ccccc3)cc1)nn2C1CCN(C(=O)CCOCCOCCOCCOCCOCCNc2cccc3c2C(=O)N(C2CCC(=O)NC2=O)C3=O)CC1 (centres undefined) | 32 nM | 88% |  |  |  |  |  |  |  | 
8 | Cn1cc(-c2ccnc(-n3ncc4cc(C(C)(C)C)cc(F)c4c3=O)c2CO)cc(Nc2cc3n(n2)CCN(C(=O)CCOCCCc2cccc4c2CN(C2CCC(=O)NC2=O)C4=O)C3)c1=O (centres undefined) | 50 nM | 79% |  |  |  |  |  |  |  | 
9 | CN1CCN([C@@H]2CCCN(c3cnc(C(N)=O)c(Nc4ccc(N5CC6(C5)CN(c5ccc7c(c5)C(=O)N(C5CCC(=O)NC5=O)C7=O)C6)cc4)n3)C2)C1=O (some centres undefined) | 0.9 nM | 94% | 97% | 0.8 nM |  | 14 nM | 83% |  |  | 
10 | CN1CCN([C@@H]2CCCN(c3cnc(C(N)=O)c(Nc4ccc(C5CCN(C[C@H]6CCN(c7ccc8c(c7)C(=O)N(C7CCC(=O)NC7=O)C8=O)C6)CC5)nc4)n3)C2)C1=O (some centres undefined) |  |  | 96% | 1 nM |  |  |  | 46% |  | 
11 | CN1CCN([C@@H]2CCCN(c3cnc(C(N)=O)c(Nc4ccc(C5CCN(C[C@H]6CC[C@@H](Nc7cccc8c7C(=O)N(C7CCC(=O)NC7=O)C8=O)CC6)CC5)cc4)n3)C2)C1=O (some centres undefined) | 7 nM | 88% |  |  |  | > 2000 nM | 31% |  |  | 
12 | CN1CCN([C@@H]2CCCN(c3cnc(C(N)=O)c(Nc4ccc5c(c4)CCN(CC4CCN(c6ccc7c(c6)C(=O)N(C6CCC(=O)NC6=O)C7=O)CC4)C5)n3)C2)C1=O (some centres undefined) | 2.4 nM | 95% | 96% | 1.2 nM | 68% | 14 nM | 86% |  |  | 
13 | C=CC(=O)N1CCC[C@@H](n2nc(-c3ccc(Oc4ccccc4)cc3)c3c(N)ncnc32)C1 [IBRUTINIB] |  |  |  |  |  |  |  |  | inactive | 55%
14 | CN1CCN([C@@H]2CCCN(c3cnc(C(N)=O)c(Nc4ccc(C5CCN(C(=O)CCOCCNc6cccc7c6C(=O)N(C6CCC(=O)NC6=O)C7=O)CC5)cc4)n3)C2)C1=O (some centres undefined) | 6.3 nM | 80% |  |  |  |  | 99% |  |  | 
